Results taken from PubChem BioAssay AID248 (DTP/NCI, 2004).
Where “and” joins values, the source holds several entries; their conditions need not be identical. Equal entries are not always repeated. Toxic doses and inconclusive results are not listed. Cut-off read from the data, not from the text of the source: active = T/C of 150% or more; inactive = T/C below 125%.

Tested on: L1210 leukemia ip in BDF1 mice, survival T/C
Test: NCI In Vivo Anticancer Drug Screen. Data for tumor model L1210 Leukemia (intraperitoneal) in B6D2F1 (BDF1) mice
Conditions: endpoint: mean survival time, higher = longer survival
Method in brief: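 In this screen, tumor-bearing mice given compound are compared to those given vehicle, and their survival values are reported as a treated-to-control quotient.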

[1] = dose: 100.0 mg/kg/injection, schedule: Q04DX003 (ip), vehicle: saline
[2] = dose: 200.0 mg/kg/injection, schedule: Q04DX003 (ip), vehicle: saline
[3] = dose: 400.0 mg/kg/injection, schedule: Q04DX003 (ip), vehicle: saline
[4] = dose: 50.0 mg/kg/injection, schedule: Q01DX009 (ip), vehicle: Klucel (hydroxypropylcellulose) (HPC)
[5] = dose: 100.0 mg/kg/injection, schedule: Q01DX009 (ip), vehicle: Klucel (hydroxypropylcellulose) (HPC)
[6] = dose: 100.0 mg/kg/injection, schedule: Q04DX003 (ip), vehicle: Klucel (hydroxypropylcellulose) (HPC)
[7] = dose: 200.0 mg/kg/injection, schedule: Q04DX003 (ip), vehicle: Klucel (hydroxypropylcellulose) (HPC)
[8] = dose: 100.0 mg/kg/injection, schedule: Q01DX001 (ip), vehicle: saline
[9] = dose: 200.0 mg/kg/injection, schedule: Q01DX001 (ip), vehicle: saline
[10] = dose: 400.0 mg/kg/injection, schedule: Q01DX001 (ip), vehicle: saline
[11] = dose: 400.0 mg/kg/injection, schedule: Q04DX003 (ip), vehicle: Klucel (hydroxypropylcellulose) (HPC)
[12] = dose: 200.0 mg/kg/injection, schedule: Q01DX009 (ip), vehicle: Klucel (hydroxypropylcellulose) (HPC)
[13] = dose: 400.0 mg/kg/injection, schedule: Q01DX009 (ip), vehicle: Klucel (hydroxypropylcellulose) (HPC)
[14] = dose: 100.0 mg/kg/injection, schedule: Q01DX001 (ip), vehicle: Klucel (hydroxypropylcellulose) (HPC)
[15] = dose: 200.0 mg/kg/injection, schedule: Q01DX001 (ip), vehicle: Klucel (hydroxypropylcellulose) (HPC)
[16] = dose: 100.0 mg/kg/injection, schedule: Q01DX001 (ip), vehicle: carboxymethylcellulose (CMC)
[17] = dose: 200.0 mg/kg/injection, schedule: Q01DX001 (ip), vehicle: carboxymethylcellulose (CMC)
[18] = dose: 400.0 mg/kg/injection, schedule: Q01DX001 (ip), vehicle: carboxymethylcellulose (CMC)

Measured: T/C

C[N+](C)(C)CCO
inactive: dose: 50.0 mg/kg/injection, schedule: Q04DX003 (ip), vehicle: none 99 % of control and 105 % of control | dose: 100.0 mg/kg/injection, schedule: Q04DX003 (ip), vehicle: none 97 % of control and 102 % of control | [1] 95 % of control | dose: 200.0 mg/kg/injection, schedule: Q04DX003 (ip), vehicle: none 96 % of control and 99 % of control | [2] 96 % of control | [3] 106 % of control

c1ccc(-c2ccno2)cc1
inactive: dose: 6.25 mg/kg/injection, schedule: Q01DX009 (ip), vehicle: saline with Tween-80 98 % of control | dose: 12.5 mg/kg/injection, schedule: Q01DX009 (ip), vehicle: saline with Tween-80 106 % of control | dose: 25.0 mg/kg/injection, schedule: Q01DX009 (ip), vehicle: saline with Tween-80 107 % of control | dose: 75.0 mg/kg/injection, schedule: Q01DX009 (ip), vehicle: saline with Tween-80 90 % of control

CCOC(=O)C(C(=O)OCC)C(=O)c1cc(-c2ccc(Cl)c(Cl)c2)nc2c(Cl)cc(Cl)cc12
inactive: [4] 98 % of control | [5] 104 % of control | [6] 101 % of control | [7] 109 % of control

O=c1cc(Nc2ccccc2Cl)[nH]c(=O)[nH]1
inactive: dose: 100.0 mg/kg/injection, schedule: Q04DX003 (ip), vehicle: saline with Tween-80 104 % of control | dose: 200.0 mg/kg/injection, schedule: Q04DX003 (ip), vehicle: saline with Tween-80 98 % of control | dose: 400.0 mg/kg/injection, schedule: Q04DX003 (ip), vehicle: saline with Tween-80 95 % of control

Nc1c2c([nH]c(=O)c1N=O)CCC2
inactive: dose: 50.0 mg/kg/injection, schedule: Q01DX001 (ip), vehicle: saline 95 % of control | [8] 93 % of control | [9] 95 % of control | [10] 104 % of control

CC(C)=CC(=O)CNC(N)=S
inactive: [6] 100 % of control and 98 % of control | [7] 101 % of control | [11] 93 % of control

O=[N+]([O-])c1cccc(N=Cc2ccccc2)c1
inactive: [5] 117 % of control | [6] 88 % of control | [12] 111 % of control | [7] 96 % of control | [13] 88 % of control | [11] 97 % of control

Cc1c(C)c(Br)c(C)c(-c2c(C)c(C)c(C)c(Br)c2C)c1C
inactive: [4] 99 % of control | [5] 97 % of control | [12] 94 % of control | [13] 90 % of control

CCn1cnc2c(SC)nc(N)nc21
inactive: dose: 37.5 mg/kg/injection, schedule: Q01DX009 (ip), vehicle: Klucel (hydroxypropylcellulose) (HPC) 101 % of control | dose: 50.0 mg/kg/injection, schedule: Q04DX003 (ip), vehicle: other 101 % of control | dose: 75.0 mg/kg/injection, schedule: Q01DX009 (ip), vehicle: Klucel (hydroxypropylcellulose) (HPC) 103 % of control | dose: 100.0 mg/kg/injection, schedule: Q04DX003 (ip), vehicle: other 104 % of control | dose: 150.0 mg/kg/injection, schedule: Q01DX009 (ip), vehicle: Klucel (hydroxypropylcellulose) (HPC) 108 % of control | dose: 200.0 mg/kg/injection, schedule: Q04DX003 (ip), vehicle: other 87 % of control

Cc1ccc(NSC(Cl)(Cl)Cl)cc1
inactive: dose: 50.0 mg/kg/injection, schedule: Q04DX002 (ip), vehicle: saline with Tween-80 101 % of control | dose: 100.0 mg/kg/injection, schedule: Q04DX002 (ip), vehicle: saline with Tween-80 106 % of control and 108 % of control | dose: 200.0 mg/kg/injection, schedule: Q04DX002 (ip), vehicle: saline with Tween-80 98 % of control and 123 % of control

O=C(O)c1cccc(CCc2ccccc2)c1
inactive: [14] 102 % of control | [15] 100 % of control

NCC(O)C(F)(F)C(F)(F)C(F)(F)F (stereo unspecified)
inactive: [16] 103 % of control | [17] 103 % of control | [18] 95 % of control

O=C1C=C(N2CCCC2)CCC1
inactive: dose: 75.0 mg/kg/injection, schedule: Q01DX001 (ip), vehicle: saline 107 % of control | dose: 150.0 mg/kg/injection, schedule: Q01DX001 (ip), vehicle: saline 109 % of control

CCN(CC)CCCC(C)NC(=O)c1cccc2c([N+](=O)[O-])cccc12 (stereo unspecified)
inactive: dose: 25.0 mg/kg/injection, schedule: Q01DX009 (ip), vehicle: water 100 % of control | dose: 50.0 mg/kg/injection, schedule: Q01DX009 (ip), vehicle: water 108 % of control | dose: 100.0 mg/kg/injection, schedule: Q01DX009 (ip), vehicle: water 103 % of control

CCC(C1=CCCCC1)c1nc2c([nH]1)c(=O)n(C)c(=O)n2C (stereo unspecified)
inactive: dose: 50.0 mg/kg/injection, schedule: Q01DX001 (ip), vehicle: other 101 % of control | dose: 100.0 mg/kg/injection, schedule: Q01DX001 (ip), vehicle: other 90 % of control | dose: 200.0 mg/kg/injection, schedule: Q01DX001 (ip), vehicle: other 90 % of control | dose: 400.0 mg/kg/injection, schedule: Q01DX001 (ip), vehicle: other 97 % of control

CCOC(=O)NC(C(N)=O)C(N)=O
inactive: [6] 103 % of control | [7] 108 % of control | [11] 106 % of control

CC1(C)Cc2cccc(C(=O)CCCN3CCC4(CC3)C(=O)NCN4c3ccccc3)c2O1
inactive: dose: 50.0 mg/kg/injection, schedule: Q01DX001 (ip), vehicle: Klucel (hydroxypropylcellulose) (HPC) 100 % of control | [14] 102 % of control | [15] 93 % of control

CCCCCCCCCCCCCCCCCCNC(=O)N(CC)c1ccccc1C
inactive: [5] 101 % of control | [6] 93 % of control | [12] 98 % of control | [7] 90 % of control | [13] 101 % of control | [11] 92 % of control

COC(=O)c1cccc2c1-c1ccccc1C(Br)C2Br (stereo unspecified)
inactive: [8] 111 % of control | [1] 96 % of control | [9] 95 % of control | [2] 92 % of control | [10] 97 % of control | [3] 94 % of control

Clc1ccc(Cc2ccc(Cl)cc2)cc1
inactive: [16] 107 % of control | [17] 100 % of control | [18] 102 % of control

COc1ccc(C=C2C(=O)NC(=O)NC2=O)cc1OC
inactive: [4] 92 % of control | [5] 96 % of control | [12] 96 % of control
